Common to all, as to type: functional
Test [1] deals with Mycobacterium tuberculosis. Kind of test: Minimum inhibitory concentration tested against Mycobacterium tuberculosis resistant clinical isolates; Range:1-4 ug/ml.
The test system of test [2] is Mycobacterium tuberculosis. Briefly: Minimum inhibitory concentration tested against Mycobacterium tuberculosis resistant clinical isolates.
For test [3], the system named is Mycobacterium tuberculosis. Kind of test: Minimum inhibitory concentration tested against Mycobacterium tuberculosis resistant clinical isolates; Range 8-16 ug/mL.
The test system of test [4] is Mycobacterium tuberculosis. Briefly: Minimum inhibitory concentration tested against Mycobacterium tuberculosis resistant clinical isolates; Range 8->16 ug/mL.

≈ marks a conversion by molar mass, not a printed value. Bounds are passed on as bounds.

A word on the MIC: it is the least concentration at which growth counts as inhibited. The low end stands for inhibition by little substance, the high end for a need for much substance.

In test [1], `O=C1c2ccccc2C(=O)N1CCCCCCN1CCN(CC/N=c2/cc3n(-c4ccc(Cl)cc4)c4ccccc4nc-3cc2Nc2ccc(Cl)cc2)CC1` returned a minimum inhibitory concentration (MIC) of 4 µg/mL (≈ 5.18 µM).

With `O=C1c2cccc3cccc(c23)C(=O)N1CCCN1CCN(CC/N=c2/cc3n(-c4ccc(Cl)cc4)c4ccccc4nc-3cc2Nc2ccc(Cl)cc2)CC1`, the minimal inhibitory concentration (MIC) in test [2] was more than 16 µg/mL.

Regarding `O=C1c2ccccc2C(=O)N1CCCCN1CCN(CC/N=c2/cc3n(-c4ccc(Cl)cc4)c4ccccc4nc-3cc2Nc2ccc(Cl)cc2)CC1`, the MIC in test [2] is more than 16 µg/mL.

Take `O=C1c2cccc3cccc(c23)C(=O)N1CCCCCCN1CCN(CC/N=c2/cc3n(-c4ccc(Cl)cc4)c4ccccc4nc-3cc2Nc2ccc(Cl)cc2)CC1`: in test [3], the MIC worked out at 16 µg/mL (≈ 19.4 µM).

In test [2], `O=C1c2cccc3cccc(c23)C(=O)N1CCCCCN1CCN(CC/N=c2/cc3n(-c4ccc(Cl)cc4)c4ccccc4nc-3cc2Nc2ccc(Cl)cc2)CC1` gave an MIC of more than 16 µg/mL.

Molecule `O=C1c2cccc3cccc(c23)C(=O)N1CCCCN1CCN(CC/N=c2/cc3n(-c4ccc(Cl)cc4)c4ccccc4nc-3cc2Nc2ccc(Cl)cc2)CC1` came in with an MIC in test [2] of more than 16 µg/mL.

In test [1], `O=C1c2ccccc2C(=O)N1CCCCCN1CCN(CC/N=c2/cc3n(-c4ccc(Cl)cc4)c4ccccc4nc-3cc2Nc2ccc(Cl)cc2)CC1` showed an MIC of 4 µg/mL (≈ 5.27 µM).

`O=C1c2ccccc2C(=O)N1CCCN1CCN(CC/N=c2/cc3n(-c4ccc(Cl)cc4)c4ccccc4nc-3cc2Nc2ccc(Cl)cc2)CC1` yielded a minimum inhibitory concentration (MIC) in test [2] of more than 16 µg/mL.

Consider `NNC(=O)c1ccncc1` [ISONIAZID], for which the MIC in test [4] was more than 16 µg/mL.

The values above are taken from ChEMBL document CHEMBL1143511, “Antitubercular agents. Part 1: synthesis of phthalimido- and naphthalimido-linked phenazines as new prototype antitubercular agents” (2005).
